The values below are quoted from earlier work in patent US20190177279A1, “CARBOXYLIC ACID AROMATIC 1,2-CYCLOPROPYLAMIDES” (Bayer Pharma Aktiengesellschaft, priority 2017, published 2019).

The conditions of data set [1]: prior art, Bioorg Med Chem Lett 2010; cited from earlier work.
For data set [2] the following is noted: prior art, Bioorg Med Chem Lett 2010; cited from earlier work. The source holds these as a separate data set.
The conditions of data set [3]: prior art, Bioorg Med Chem Lett 2010; cited from earlier work. This is another data set of the same source.
For data set [4] the following is noted: prior art, Bioorg Med Chem Lett 2010; cited from earlier work. The source holds these as a separate data set.

On to `C[C@@H]1CC[C@H](C)N1C(=O)c1ccc([C@@H](C)NC(=O)C2(NC(=O)c3cc(F)cc(C(F)(F)F)c3)CC2)c(F)c1`, for which, in data set [1], the human metabolic stability result is “poor”. Besides, the aqueous solubility entry in data set [2] is “reasonable”. For the same molecule, in data set [3], the “pharmacokinetic profile in rat” value is “reasonable”. Besides, the penetration profile result in data set [4] is on record as “acceptable”.
